Results taken from patent publication US9303261B2, “Composition for controlling chromogenesis including microRNA” (Amorepacific Corporation, priority 2011, dated 2016).

System: tyrosinase mRNA
Assay: Tyrosinase mRNA expression by real-time PCR after transfection of WM115 cells with miR-125b inhibitor
Assay type: cell-based, human
Details: melanoma cell line WM115, 75 uM transfected using liposome, about 60 hours, compared to Comparative Examples 1 and 2
Procedure: The present inventors used an inhibitor of […] to perform a loss-of-function study of miR-125b, in which the inhibitor of miR-125b is an oligonucleotide having a sequence complementary to that of miR-125b and can bind to miR-125b in cells to inhibit the function of the miR-125b.
75 uM of an inhibitor of miR-125b (model: IH-300595-05-0005, miRIDIAN Hairpin Inhibitor, Human hsa-miR-125b MIMAT0000423/MI0000446 (hsa-miR-125b), Dharmacon, Inc.; Example 2) was transfected into the melanoma cell line WM115 using liposome and allowed to move into the cells. […] After transfection, the cells were cultured in a 5% CO2 incubator at 37° C. for about 60 hours, and then RNA was isolated from the cells using 1 ml of Trizol reagent. Specifically, the cells were lysed using Trizol, and then centrifuged to remove the supernatant, and 0.35 ml of isopropanol was added to the residue to form nucleic acid pellets, which were then washed with 70% EtOH and dissolved in water to isolate RNA. About 1 ug of the RNA was made into cDNA using oligo dT and reverse transcriptase, and the cDNA was subjected to real-time PCR according to the TaqMan method (Applied Biosystems) using a primer (assay ID: Hs01099965_m1) specific to tyrosinase mRNA under the following conditions: reaction at 95° C. for 10 min; and then about 45 cycles of 10 sec at 95° C. and 1 min at 60° C. […]

In the case of “Example 2: miRIDIAN Hairpin Inhibitor, Human hsa-miR-125b (IH-300595-05-0005, Dharmacon); oligonucleotide with sequence complementary to miR-125b”, the “expression level of tyrosinase mRNA (normalized to GAPDH)” value is reported as “significantly increased”.
